The values below come from PMC11500415, “Chemical inhibition of stomatal differentiation by perturbation of the master-regulatory bHLH heterodimer via an ACT-Like domain” (Nature Communications, 2024).

“And” between values parts separate entries of the source, which are not always exact repeats. Equal entries are not always repeated.

The subject of the series is Arabidopsis wild-type (WT) seedlings. As to the kind of experiment: Stomatal development bioassay, seedlings in liquid culture. The format is in vivo. The note with it: for effect on stomatal development (in words): WT seedlings; for Number of stomata per 1 mm2 of cotyledon abaxial epidermis: single seedlings n=8 (Fig. 2c); for reduction of total number of stomata and meristemoids / decrease of the number of stomata from mock / increase of the number of meristemoids from mock: WT (Fig. 1e); for meristemoid density, mean / stomata density, mean / total (stomata+meristemoid) density, mean: mean of n=8 (Fig. 1e). The protocol: Arabidopsis accession Columbia (Col-0) was used as wild-type. […] Their genotype and transcript reduction were confirmed. The presence of transgenes/mutant alleles were confirmed by genotyping. For liquid culture with Stomidazolone (AYSJ929, compound 3), the analogs (AYSJ1059 (compound 5) and AYSJ1061 (compound 6)), degraded compound lzx103 (compound 4), and SIM3* (compound 7), all compounds were dissolved in dimethyl sulfoxide (DMSO, Molecular biology grade, Fujifilm Wako, Japan 046-21981), Col-0 seeds were sown in 96-well plates (TL5003; True Line) containing 95 μL of 1/2 MS media containing 0.5% sucrose with rotary shaking at 140 rpm under continuous light at 22 °C. Five μL of compounds were dissolved in DMSO at 10 mM and diluted with liquid 1/2 MS media to 1 mM and added on 1-day-old seedlings (final concentration, 50 μM). Seedlings were incubated for 8 days, and at day 9 seedling abaxial cotyledons were observed through confocal microscopy. For liquid culture of scrm-D_S343 and scrm-D_S423, 1/2 MS liquid media without sucrose was used. For the solid culture, 0, 20, 50 or 100 μM Stomidazolone were solidified with low-melting agarose (5805S, PrimeGelTM Agarose LMT 1-20 K, TAKARA Bio). Briefly, 1/2 MS salt, 0.5% sucrose, and 0.8% low melting agarose were mixed in water and autoclaved. After cooling the medium at around 30 °C, Stomidazolone (500x, dissolved in DMSO) was added and poured into 90 mm petri dishes (Asnol Petri Dish JP φ90 x 15 mm, 3-1491-01, AS ONE). Col-0 seeds were sown on Stomidazolone-containing 1/2 MS agarose media and grown under continuous light for 9 days.
For confocal microscopy, cell peripheries of seedlings were visualized with propidium iodide (Sigma, P4170). Images were acquired using LSM800 or LSM700 (Zeiss) using a 20x lens. The GFP, YFP reporter and PI signals were detected with excitation at 488 nm and an emission filter of 410 to 546 nm, at 488 nm and an emission filter of 410 to 546 nm, and with excitation at 561 nm and 582–617 nm emission range, respectively. Raw data were collected with 1024 × 1024 pixel images. For qualitative image presentation, Adobe Photoshop CC was used to trim and uniformly adjust the contrast/brightness.
For quantitative analysis of the abaxial leaf epidermis, confocal images were taken on the days after germination as indicated in the Figure legends. Preparation of images was done as described previously[32],[70]. For counting epidermal cell types, stomatal density, stomatal precursor cells (meristemoids), total stomata-lineage cells (stomata and meristemoids) were calculated by counting cell types in an area of 0.4 mm^2 (0.63 mm × 0.63 mm) and plotted as per mm^2. A series of Z-stack confocal images was obtained to obtain images covering the epidermis and capturing GFP/YFP signal from the reporter lines. The area and the number of epidermal cells were quantified by using FIJI-ImageJ. Statistical analyses were performed using R ver. 4.0.2. Sample sizes (n) are indicated and defined in each legend. For the multiple sample comparison, 1-way ANOVA was performed followed by a post hoc Tukey HSD test. For the two-sample comparison, Student’s T-test was performed. Graphs were generated using R ggplot2 package. For all boxplots, each box represents IQR (interquartile range), in which top, middle line, and bottom indicating 75, 50, and 25 percentiles, respectively, and the bar representing maximum to minimal values. Each magenta dot represents jittered individual data point. The datapoints that go beyond the bar are outliers, which are indicated as black dots. If the data point is greater than Q3 + 1.5*IQR (above the third quartile is greater than 1.5 times of the interquartile range) or less than Q1 − 1.5*IQR, that data point is classified as outlier. The color of Boxplot graph was based on ColorBrewer.org. The value of n, the number of each experiment or samples, the means of error bars, and how statistical significance was defined are indicated in a relevant figure legend. […]

Setting [1] is: 50 μM, WT, single seedlings n=8 (Fig. 4b).
Where [2] appears, read: 50 μM, cotyledon abaxial epidermis, individual seedlings.

Turning to `O=C1C(c2ccccc2)=NC(NS(=O)(=O)c2ccccc2)(c2ccc(Br)cc2)N1S(=O)(=O)c1ccccc1` (stereo not shown) [AYSJ1061], the “effect on stomatal development (in words)” value (50 μM, liquid culture) is on record as “did not affect the number of stomata”. Moreover, the “Number of stomata per 1 mm2 of cotyledon abaxial epidermis” value (50 μM, WT, 9 dag) was 160 per 1 mm2 and 190 per 1 mm2 and 148 per 1 mm2 and 192 per 1 mm2 and 173 per 1 mm2 and 255 per 1 mm2 and 236 per 1 mm2.
On to `O=C1C(c2ccccc2)=NC(NS(=O)(=O)c2ccccc2)(c2ccccc2)N1S(=O)(=O)c1ccccc1` (stereo not shown) [Stomidazolone], for which the “reduction of total number of stomata and meristemoids” value by setting is: (20 μM) 14.46%; (50 μM) 25.03%. Further, the “Total (stomata+meristemoid) density” value is 156 per mm^2 and 173 per mm^2 and 163 per mm^2 and 168 per mm^2 and 107 per mm^2 and 154 per mm^2 and 144 per mm^2 and 124 per mm^2 (20 uM, WT cotyledon abaxial epidermis, 9 dag, single seedlings n=8 (Fig. 1e)); 166 per mm^2 and 149 per mm^2 and 124 per mm^2 and 132 per mm^2 and 146 per mm^2 and 100 per mm^2 and 115 per mm^2 and 110 per mm^2 (50 uM, WT, 9 dag, single seedlings n=8 (Fig. 1e)); 104 per mm2 and 136 per mm2 and 119 per mm2 and 102 per mm2 and 87 per mm2 and 124 per mm2 and 168 per mm2 and 158 per mm2 under setting [1]; 120 per mm^2 and 85 per mm^2 and 71 per mm^2 and 112 per mm^2 and 95 per mm^2 and 122 per mm^2 (100 uM, WT, 9 dag, single seedlings n=8 (Fig. 1e)). The Stomata density (20 uM, WT, 9 dag, single seedlings n=8 (Fig. 1e)) is 115 per mm^2 and 141 per mm^2 and 144 per mm^2 and 132 per mm^2 and 88 per mm^2 and 127 per mm^2; the Stomata density under setting [1] was 90 per mm2 and 117 per mm2 and 102 per mm2 and 75 per mm2 and 107 per mm2 and 148 per mm2; the Stomata density under setting [2] is 214 per mm2 and 241 per mm2 and 216 per mm2 and 228 per mm2 and 194 per mm2 and 250 per mm2 and 182 per mm2 and 207 per mm2. In addition, the “meristemoid density, mean” value (20 uM, WT, mock mean 7.875) worked out at 24.875 per mm^2; the “meristemoid density, mean” value (50 uM, WT) is given as 63.125 per mm^2; the “meristemoid density, mean” value (100 uM, WT) turned out to be 51 per mm^2. Besides, the “stomata density, mean” value (20 uM, WT, mock mean 165.75) was 124.25 per mm^2; the “stomata density, mean” value (50 uM, WT) was found to be 67.125 per mm^2; the “stomata density, mean” value (100 uM, WT) is 50.5 per mm^2. In addition, the “total (stomata+meristemoid) density, mean” value (from here on “total … mean”) (20 uM, WT, mock mean 173.75) was determined as 148.625 per mm^2; the “total … mean” value (50 uM, WT) was determined as 130.25 per mm^2; the “total … mean” value (100 uM, WT) is 101.25 per mm^2. In addition, the “decrease of the number of stomata from mock” value runs as follows: (50 μM) 59.50%; (100 μM) 69.53%. Moreover, the “increase of the number of meristemoids from mock” value is, setting by setting: (50 μM) 801.5%; (100 μM) 647.6%. The “Number of stomata per 1 mm2 of cotyledon abaxial epidermis” value (50 μM, WT, 9 dag) was 70 per 1 mm2 and 109 per 1 mm2 and 90 per 1 mm2 and 124 per 1 mm2 and 129 per 1 mm2 and 112 per 1 mm2 and 117 per 1 mm2. The Meristemoid density is 15 per mm2 and 19 per mm2 and 17 per mm2 and 12 per mm2 and 10 per mm2 (50 μM, WT, single seedlings n=8 (Fig. 4b, replotted 4k)); 0 per mm2 and 2 per mm2 and 10 per mm2 and 5 per mm2 and 7 per mm2 under setting [2]. Moreover, the Total cell density under setting [2] is 214 per mm2 and 243 per mm2 and 226 per mm2 and 233 per mm2 and 199 per mm2 and 253 per mm2 and 190 per mm2 and 209 per mm2. Where the note is “liquid culture, even at 100 μM (Fig. 1f)”, the “effect on overall seedling growth” value is “does not affect”.
With `Cc1ccc(C2(NS(=O)(=O)c3ccccc3)N=C(c3ccccc3)C(=O)N2S(=O)(=O)c2ccccc2)cc1` (stereo not shown) [AYSJ1059], where the note is “50 μM, liquid culture”, the “effect on stomatal development (in words)” value is on record as “did not affect the number of stomata”. The “Number of stomata per 1 mm2 of cotyledon abaxial epidermis” value (50 μM, WT, 9 dag) was 202 per 1 mm2 and 209 per 1 mm2 and 187 per 1 mm2 and 245 per 1 mm2 and 192 per 1 mm2 and 182 per 1 mm2 and 199 per 1 mm2 and 175 per 1 mm2.
